In this assay the target is hQC (Homo sapiens, UniProt Q16769). As to the kind of experiment: Inhibitor assay for glutaminyl cyclase activity (fluorometric, H-Gln-βNA / H-Gln-AMC). The format is biochemical. The method, then:
All measurements were performed with a BioAssay Reader HTS-7000Plus for microplates (Perkin Elmer) at 30° C. QC activity was evaluated fluorometrically using H-Gln-βNA. The samples consisted of 0.2 mM fluorogenic substrate, 0.25 U pyroglutamyl aminopeptidase (Unizyme, Hørsholm, Denmark) in 0.2 M Tris/HCl, pH 8.0 containing 20 mM EDTA and an appropriately diluted aliquot of QC in a final volume of 250 μl. Excitation/emission wavelengths were 320/410 nm. The assay reactions were initiated by addition of glutaminyl cyclase. QC activity was determined from a standard curve of β-naphthylamine under assay conditions. One unit is defined as the amount of QC catalyzing the formation of 1 μmol pGlu-βNA from H-Gln-βNA per minute under the described conditions.
In a second fluorometric assay, QC activity was determined using H-Gln-AMC as substrate. Reactions were carried out at 30° C. utilizing the NOVOStar reader for microplates (BMG labtechnologies). The samples consisted of varying concentrations of the fluorogenic substrate, 0.1 U pyroglutamyl aminopeptidase (Qiagen) in 0.05 M Tris/HCl, pH 8.0 containing 5 mM EDTA and an appropriately diluted aliquot of QC in a final volume of 250 μl. Excitation/emission wavelengths were 380/460 nm. The assay reactions were initiated by addition of glutaminyl cyclase. QC activity was determined from a standard curve of 7-amino-4-methylcoumarin under assay conditions. The kinetic data were evaluated using GraFit sofware.
For inhibitor testing, the sample composition was the same as described above, except of the putative inhibitory compound added. For a rapid test of QC-inhibition, samples contained 4 mM of the respective inhibitor and a substrate concentration at 1 KM. For detailed investigations of the inhibition and determination of Ki-values, influence of the inhibitor on the auxiliary enzymes was investigated first. In every case, there was no influence on either enzyme detected, thus enabling the reliable determination of the QC inhibition. The inhibitory constant was evaluated by fitting the set of progress curves to the general equation for competitive inhibition using GraFit software.

Setting [1] is: compound from preparative synthesis, purified, read-out: IC50 hQC.

Like-named read-outs stand apart in the source and are kept apart here.

Drawing on US8278345B2, “Inhibitors of glutaminyl cyclase” (Probiodrug AG, priority 2006, dated 2012), this text covers IC50 for 26 compounds.

Chain of hQC (Q16769 29-361): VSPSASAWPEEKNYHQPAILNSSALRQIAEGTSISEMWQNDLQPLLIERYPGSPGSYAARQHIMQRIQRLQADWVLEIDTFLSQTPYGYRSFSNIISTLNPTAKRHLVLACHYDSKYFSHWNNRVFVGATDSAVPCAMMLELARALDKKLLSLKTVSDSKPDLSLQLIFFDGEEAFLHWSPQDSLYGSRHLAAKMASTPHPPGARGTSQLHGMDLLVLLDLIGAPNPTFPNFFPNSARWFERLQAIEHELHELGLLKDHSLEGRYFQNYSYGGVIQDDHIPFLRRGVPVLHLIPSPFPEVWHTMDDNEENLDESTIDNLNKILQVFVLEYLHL

Broadly, the IC50 is the point on the concentration scale where inhibition reaches its midpoint. On to `CCCCCC1=C(O)C(=O)N(CCCn2ccnc2)C1c1ccc(OC)cc1` (stereo not shown) [Compound 193, 3-Hydroxy-1-(3-imidazol-1-yl-propyl)-5-(4-methoxy-phenyl)-4-pentyl-1,5-dihydro-pyrrol-2-one], for which the IC50 turned out to be 1040 nM under setting [1] and 40 nM (read-out: IC50).

Regarding `Cc1ccc2occ(C3C(C(C)C)=C(O)C(=O)N3c3ccc4[nH]cnc4c3)c(=O)c2c1` (stereo not shown) [Compound 331, 1-(1H-Benzoimidazol-5-yl)-3-hydroxy-4-isopropyl-5-(6-methyl-4-oxo-4H-chromen-3-yl)-1,5-dihydro-pyrrol-2-one], the IC50 (read-out: IC50) worked out at 1390 nM.

Take `CCCC(=O)C1=C(O)C(=O)N(c2ccc3[nH]cnc3c2)C1CCC(=O)O` (stereo not shown) [Compound 324, 3-[1-(1H-Benzoimidazol-5-yl)-3-butyryl-4-hydroxy-5-oxo-2,5-dihydro-1H-pyrrol-2-yl]-propionic acid]: the half-maximal inhibitory concentration (IC50) (read-out: IC50) was 6610 nM.

As for `CCCCCC1C(c2ccccc2)=C(O)C(=O)N1CCCn1ccnc1` (stereo not shown) [Compound 89, 3-Hydroxy-1-(3-imidazol-1-yl-propyl)-5-pentyl-4-phenyl-1,5-dihydro-pyrrol-2-one], under “read-out: IC50”, the IC50 was 40 nM.

With `O=C1C(O)=C(c2ccccc2)C(c2cccc(O)c2)N1CCCn1ccnc1` (stereo not shown) [Compound 112, 3-Hydroxy-5-(3-hydroxy-phenyl)-1-(3-imidazol-1-yl-propyl)-4-phenyl-1,5-dihydro-pyrrol-2-one], the IC50 is, setting by setting: under setting [1], 1960 nM; (read-out: IC50) 400 nM.

`CC1=C(O)C(=O)N(CCCn2ccnc2)C1C` (stereo not shown) [Compound 31, 3-Hydroxy-1-(3-imidazol-1-yl-propyl)-4,5-dimethyl-1,5-dihydro-pyrrol-2-one]: the IC50 (read-out: IC50) was determined as 6700 nM.

With `O=C1C(O)=C(c2ccccc2)C(c2ccco2)N1CCCn1ccnc1` (stereo not shown) [Compound 106, 5-Furan-2-yl-3-hydroxy-1-(3-imidazol-1-yl-propyl)-4-phenyl-1,5-dihydro-pyrrol-2-one], the IC50 (read-out: IC50) came to 40 nM.

Take `O=C1C(O)=C(c2ccccc2)C(C2=CCCCC2)N1CCCn1ccnc1` (stereo not shown) [Compound 94, 5-Cyclohex-1-enyl-3-hydroxy-1-(3-imidazol-1-yl-propyl)-4-phenyl-1,5-dihydro-pyrrol-2-one]: the IC50 (read-out: IC50) is 4900 nM.

In the case of `Cc1cccc(C2C(C(=O)c3ccsc3)=C(O)C(=O)N2c2ccc3[nH]cnc3c2)n1` (stereo not shown) [Compound 306, 1-(1H-Benzoimidazol-5-yl)-3-hydroxy-5-(6-methyl-pyridin-2-yl)-4-(thiophene-3-carbonyl)-1,5-dihydro-pyrrol-2-one], the IC50 (read-out: IC50) was determined as 400 nM.

As to `CC1=C(O)C(=O)N(CCCn2ccnc2)C1c1ccc(C)o1` (stereo not shown) [Compound 25, 3-Hydroxy-1-(3-imidazol-1-yl-propyl)-4-methyl-5-(5-methyl-furan-2-yl)-1,5-dihydro-pyrrol-2-one], for the setting “read-out: IC50”, the half-maximal inhibitory concentration (IC50) was found to be 4900 nM.

As for `O=C1C(O)=C(c2ccc(O)cc2)C(c2cc[nH]n2)N1CCCn1ccnc1` (stereo not shown) [Compound 151, 3-Hydroxy-4-(4-hydroxy-phenyl)-1-(3-imidazol-1-yl-propyl)-5-(1H-pyrazol-3-yl)-1,5-dihydro-pyrrol-2-one], where the note is “read-out: IC50”, the IC50 was 40 nM.

Regarding `CC1=C(O)C(=O)N(c2ccc3[nH]cnc3c2)C1c1c(F)ccc(Cl)c1F` (stereo not shown) [Compound 412, 1-(1H-Benzoimidazol-5-yl)-5-(3-chloro-2,6-difluoro-phenyl)-3-hydroxy-4-methyl-1,5-dihydro-pyrrol-2-one], the IC50 (read-out: IC50) was found to be 4180 nM.

Consider `CC(C)CC(=O)C1=C(O)C(=O)N(c2ccc3[nH]cnc3c2)C1c1c[nH]cn1` (stereo not shown) [Compound 461, 1-(1H-Benzoimidazol-5-yl)-3-hydroxy-5-(1H-imidazol-4-yl)-4-(3-methyl-butyryl)-1,5-dihydro-pyrrol-2-one], for which, for the setting “read-out: IC50”, the IC50 is 4000 nM.

For the compound `Cc1ccc2c(C3C(C(=O)C4CC4)=C(O)C(=O)N3c3ccc4[nH]cnc4c3)c[nH]c2c1` (stereo not shown) [Compound 453, 1-(1H-Benzoimidazol-5-yl)-4-cyclopropanecarbonyl-3-hydroxy-5-(6-methyl-1H-indol-3-yl)-1,5-dihydro-pyrrol-2-one], the IC50 (read-out: IC50) is 7420 nM.

Consider `CCCC1C(c2cccc(O)c2)=C(O)C(=O)N1CCCn1ccnc1` (stereo not shown) [Compound 7, 3-Hydroxy-4-(3-hydroxy-phenyl)-1-(3-imidazol-1-yl-propyl)-5-propyl-1,5-dihydro-pyrrol-2-one], for which the IC50 (read-out: IC50) was 400 nM.

`CC(=O)C1=C(O)C(=O)N(c2ccc3[nH]cnc3c2)C1c1ccnc2ccccc12` (stereo not shown) [Compound 318, 4-Acetyl-1-(1H-benzoimidazol-5-yl)-3-hydroxy-5-quinolin-4-yl-1,5-dihydro-pyrrol-2-one]: the IC50 (read-out: IC50) was found to be 1750 nM.

`O=C(O)CC1=C(O)C(=O)N(c2ccc3[nH]cnc3c2)C1c1cc(Br)ccc1F` (stereo not shown) [Compound 338, [1-(1H-Benzoimidazol-5-yl)-2-(5-bromo-2-fluoro-phenyl)-4-hydroxy-5-oxo-2,5-dihydro-1H-pyrrol-3-yl]-acetic acid]: the IC50 (read-out: IC50) turned out to be 2200 nM.

Regarding `CC1=C(O)C(=O)N(CCCn2ccnc2)C1c1ccccn1` (stereo not shown) [Compound 43, 3-Hydroxy-1-(3-imidazol-1-yl-propyl)-4-methyl-5-pyridin-2-yl-1,5-dihydro-pyrrol-2-one], the IC50 (read-out: IC50) turned out to be 2200 nM.

As to `CCCC1C(c2ccc(O)cc2)=C(O)C(=O)N1CCCn1ccnc1` (stereo not shown) [Compound 150, 3-Hydroxy-4-(4-hydroxy-phenyl)-1-(3-imidazol-1-yl-propyl)-5-propyl-1,5-dihydro-pyrrol-2-one], the IC50 (read-out: IC50) came to 40 nM.

Turning to `CCC1=C(O)C(=O)N(c2ccc3[nH]cnc3c2)C1c1cc(F)cc(F)c1F` (stereo not shown) [Compound 315, 1-(1H-Benzoimidazol-5-yl)-4-ethyl-3-hydroxy-5-(2,3,5-trifluoro-phenyl)-1,5-dihydro-pyrrol-2-one], the concentration for half-maximal inhibition (IC50) (read-out: IC50) turned out to be 1480 nM.

With `CCCCCC1=C(O)C(=O)N(CCCn2ccnc2)C1CCCC` (stereo not shown) [Compound 214, 5-Butyl-3-hydroxy-1-(3-imidazol-1-yl-propyl)-4-pentyl-1,5-dihydro-pyrrol-2-one], the half-inhibitory concentration (IC50) (read-out: IC50) was 400 nM.

As to `O=C1C(O)=C(c2cccc(O)c2)C(c2ccc(O)c(Br)c2)N1c1ccc2[nH]cnc2c1` (stereo not shown) [Compound 294, 1-(1H-Benzoimidazol-5-yl)-5-(3-bromo-4-hydroxy-phenyl)-3-hydroxy-4-(3-hydroxy-phenyl)-1,5-dihydro-pyrrol-2-one], the IC50 (read-out: IC50) was determined as 5710 nM.

In the case of `Cc1ccc(O)c(C2C(c3c[nH]c4ccccc34)=C(O)C(=O)N2c2ccc3[nH]cnc3c2)c1` (stereo not shown) [Compound 332, 1-(1H-Benzoimidazol-5-yl)-3-hydroxy-5-(2-hydroxy-5-methyl-phenyl)-4-(1H-indol-3-yl)-1,5-dihydro-pyrrol-2-one], for the setting “read-out: IC50”, the IC50 turned out to be 7690 nM.

Consider `O=C1C(O)=C(c2ccccc2)C(c2ccc(CO)o2)N1CCCn1ccnc1` (stereo not shown) [Compound 91, 3-Hydroxy-5-(5-hydroxymethyl-furan-2-yl)-1-(3-imidazol-1-yl-propyl)-4-phenyl-1,5-dihydro-pyrrol-2-one], for which the IC50 (read-out: IC50) worked out at 1300 nM.

As to `O=C1C(O)=C(c2ccc(O)cc2)C(Cc2ccccc2)N1CCCn1ccnc1` (stereo not shown) [Compound 169, 5-Benzyl-3-hydroxy-4-(4-hydroxy-phenyl)-1-(3-imidazol-1-yl-propyl)-1,5-dihydro-pyrrol-2-one], the IC50 (read-out: IC50) worked out at 40 nM.

For the compound `O=C1C(O)=C(c2c[nH]c3ccccc23)C(c2cccc(O)c2)N1CCCn1ccnc1` (stereo not shown) [Compound 146, 3-Hydroxy-5-(3-hydroxy-phenyl)-1-(3-imidazol-1-yl-propyl)-4-(1H-indol-3-yl)-1,5-dihydro-pyrrol-2-one], for the setting “read-out: IC50”, the IC50 was 400 nM.
